The values that follow come from publication PMC6141739, “TFPI-2 Protects Against Gram-Negative Bacterial Infection” (Frontiers in Immunology, 2018).

Assay [1] relates to Escherichia coli. The assay can be described thus: Viable count assay (VCA). Format: cell-based, Escherichia coli ATCC 25922. Here is the method: Escherichia coli bacteria were grown to mid-logarithmic phase in 10 ml of (3% w/v) Todd-Hewitt (TH), bacteria were washed and diluted in buffer 10 mM Tris, pH 7.4, containing 150 mM NaCl, either alone or with the presence of human 20% citrate plasma, lepirudin, heparin, EDTA plasma, or serum. 1–2 × 10^6 cfu/ml bacteria were incubated in a total volume of 50 μl with the indicated concentrations of C-terminal TFPI-2 derived peptides for 2 h at 37°C. Alternatively, 1–2 × 10^6 cfu/ml of E. coli bacteria in the presence or absence of EDC34 were incubated either in PBS alone or PBS supplemented with 25% of human citrated plasma, immunoglobulins depleted citrated plasma, or immunoglobulins depleted citrated plasma supplemented with 10 μg of IgG/μl, for 2 h at 37°C. Serial of dilutions of the reaction mixture were plated on TH agar plates, followed by the incubation at 37°C overnight. The number of colony forming units was determined as a percentage to control sample.

The test system of another assay is P. aeruginosa. Briefly: Viable count assay (VCA). The class given is cell-based, Pseudomonas aeruginosa. The following applies: 20% human citrate plasma, 2 h 37°C (Figure 3A,B); text does not separate the two bacteria.
The subject of assay [2] is Escherichia coli. The assay can be described thus: Radial diffusion assay (RDA). The class given is cell-based. The following applies: 100 μM peptide, high salt (150 mM NaCl), n = 3 (Figure 3C,D). Here is the method: Escherichia coli was grown to mid-logarithmic phase in 10 ml (3% w/v) of trypticase soy broth (TSB). Bacteria were washed and re-suspended in 10 mM Tris, pH 7.4 to obtain a dilution of 1% of bacterial suspension (1–2 × 10^9 colony forming units cfu/ml). Subsequently, 6.6 μl of bacteria were added to 15 ml of melted underlay agarose gel consisting of 0.03% (w/v) TSB, 1% (w/v) low electroendosmosis type (EEO) agarose and 0.02% (v/v) Tween 20 (Sigma) with or without 150 mM NaCl. The mixture was poured to a 144 mm sterile petri dish and left to solidify. After that, 4 mm diameter wells were punctured and 100 μM peptides were added to each well. Plates were incubated for 3 h at 37°C and then covered by adding 15 ml of over-lay gel consisting of 6% TSB and 1% Low-EEO agarose in Millipore water. After 16–24 h of incubation at 37°C, the peptides diffusion around each well formed the zone of inhibition, which corresponded to the peptide's antimicrobial activity.

The next assay has as its system IgG. The assay can be described thus: Binding to IgG, SDS-PAGE and immunoblotting. Further details: species or system human. Here is the method:
(§1) Three μg of IgG or IgA or IgE or IgM were incubated in 20 μl of buffer (10 mM Tris, 150 mM NaCl, pH 7.4), either alone or with 0.5 μg (6 μM) of EDC34 for 1 h at 37°C. Samples were diluted in SDS buffer and analyzed under non-reducing conditions by SDS-PAGE on Criterion TGX Any kD Gel (BioRad). Alternatively, EDC34 (6 μM) was incubated either alone or in PBS containing 20% serum, citrate, lepirudin, EDTA plasma at different time points (15, 30, 60, and 120 min). Samples were analyzed under non-reducing conditions.
Six μM of EDC34 was either incubated alone or with IgGs in 10 mM Tris, 150 mM NaCl, pH 7.4 buffer, under similar concentrations for 15, 30, 60, 120 min or 24 h at 37°C. In another experiment, 6 μM of EDC34 was pre-incubated with 50 μM of TCEP (tris(2-carboxyethyl)phosphine) for 30 min at room temperature before IgG (6 μM) was added. The mixture was further incubated for 24 h at 37°C. In another experiment, 6 μM of IgG or Fab-IgG or Fc-IgG were incubated with or without 6 μM of EDC34 in 10 mM Tris, 150 mM NaCl, pH 7.4 buffer for 30 min at 37°C. Proteins and peptides were transferred to nitrocellulose membranes (Hybond-C), blocked by 5% (w/v) skimmed milk, washed and incubated with rabbit polyclonal antibodies to CAK27 or rabbit polyclonal antibodies to IgG (or 1:1,000) (Dako) or rabbit polyclonal antibodies to C1q (or 1:1,000) (Dako). […]
In general terms: Immunoblotting shows a protein as a band on a membrane.

The next assay concerns IgA. Briefly: Binding to IgA, SDS-PAGE and immunoblotting. Further details: species or system human. The note with it: 0.5 μg EDC34 with 3 μg IgA, 1 h 37°C; immunoblot (Figure 1C). Here is the method:
as §1

In a further assay the target is IgE (Homo sapiens, UniProt P01854). Briefly: Binding to IgE, SDS-PAGE and immunoblotting. The note with it: 0.5 μg EDC34 with 3 μg IgE, 1 h 37°C; immunoblot (Figure 1C). Here is the method: as §1
IgE, sequence (P01854 1-428 isoform P01854-1): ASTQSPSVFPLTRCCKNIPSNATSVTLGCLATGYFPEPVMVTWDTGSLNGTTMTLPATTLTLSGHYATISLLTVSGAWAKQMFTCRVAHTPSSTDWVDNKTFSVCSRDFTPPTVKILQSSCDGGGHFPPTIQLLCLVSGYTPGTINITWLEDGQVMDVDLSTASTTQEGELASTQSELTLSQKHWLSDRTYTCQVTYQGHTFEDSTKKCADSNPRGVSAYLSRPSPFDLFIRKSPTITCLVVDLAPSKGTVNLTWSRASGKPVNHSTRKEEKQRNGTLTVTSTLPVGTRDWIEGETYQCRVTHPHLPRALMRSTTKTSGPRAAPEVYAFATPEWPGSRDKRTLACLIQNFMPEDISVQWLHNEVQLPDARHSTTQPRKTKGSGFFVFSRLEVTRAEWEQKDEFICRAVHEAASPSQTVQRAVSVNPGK
Another assay deals with IgM. Briefly: Binding to IgM, SDS-PAGE and immunoblotting. The note with it: 0.5 μg EDC34 with 3 μg IgM, 1 h 37°C; immunoblot (Figure 1C). Further details: species or system human. Here is the method: as §1
IgM, sequence (P01871 1-453 isoform P01871-1): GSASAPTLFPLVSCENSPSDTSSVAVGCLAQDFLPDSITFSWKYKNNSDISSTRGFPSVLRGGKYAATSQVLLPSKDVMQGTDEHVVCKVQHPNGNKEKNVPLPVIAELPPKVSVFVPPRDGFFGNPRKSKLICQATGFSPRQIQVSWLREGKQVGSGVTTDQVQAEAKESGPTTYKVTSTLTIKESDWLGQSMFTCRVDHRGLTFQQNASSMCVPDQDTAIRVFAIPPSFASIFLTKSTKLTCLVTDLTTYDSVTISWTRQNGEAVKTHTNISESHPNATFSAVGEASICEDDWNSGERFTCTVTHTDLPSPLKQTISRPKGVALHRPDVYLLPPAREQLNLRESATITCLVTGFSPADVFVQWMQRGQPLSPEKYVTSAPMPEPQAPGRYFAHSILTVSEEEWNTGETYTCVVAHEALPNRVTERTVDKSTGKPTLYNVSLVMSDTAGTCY
IgM, sequence (P01591 23-159, further chain): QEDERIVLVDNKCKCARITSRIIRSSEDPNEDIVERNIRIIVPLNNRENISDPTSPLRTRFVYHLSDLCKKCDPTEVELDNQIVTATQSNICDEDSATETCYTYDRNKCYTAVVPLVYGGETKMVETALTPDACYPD
A further assay concerns Fc-IgG. Briefly: Binding to Fc fragment of IgG, western blot. The following applies: 6 μM EDC34 with 6 μM Fc-IgG, 30 min 37°C; western blot (Figure 1E). Here is the method:
(§2) Six μM of EDC34 was either incubated alone or with IgGs in 10 mM Tris, 150 mM NaCl, pH 7.4 buffer, under similar concentrations for 15, 30, 60, 120 min or 24 h at 37°C. In another experiment, 6 μM of EDC34 was pre-incubated with 50 μM of TCEP (tris(2-carboxyethyl)phosphine) for 30 min at room temperature before IgG (6 μM) was added. The mixture was further incubated for 24 h at 37°C. In another experiment, 6 μM of IgG or Fab-IgG or Fc-IgG were incubated with or without 6 μM of EDC34 in 10 mM Tris, 150 mM NaCl, pH 7.4 buffer for 30 min at 37°C. Proteins and peptides were transferred to nitrocellulose membranes (Hybond-C), blocked by 5% (w/v) skimmed milk, washed and incubated with rabbit polyclonal antibodies to CAK27 or rabbit polyclonal antibodies to IgG (or 1:1,000) (Dako) or rabbit polyclonal antibodies to C1q (or 1:1,000) (Dako). Polyclonal swine anti-rabbit immunoglobulin secondary HRP antibody (1:1,000) was used for detection and an enhanced chemiluminescent Substrate (LumiGLO) developing system (Upstate cell signaling solutions).

Another assay has as its system Fab-IgG. The assay can be described thus: Binding to Fab fragment of IgG, western blot. The note with it: 6 μM EDC34 with 6 μM Fab-IgG, 30 min 37°C; western blot (Figure 1E). Here is the method: as §2
The subject of the next assay is human IgG. The assay can be described thus: Surface plasmon resonance on IgG-coated chip. The following applies: SPR, IgG on CM5 chip, peptide 25–400 nM, 25°C, Hepes running buffer pH 7.5 (Figure 3E). The class given is binding. Here is the method:
IgG was immobilized (15 μg/mL) on a CM5 sensor chip via amine coupling in a 10 mM sodium acetate buffer (pH 4). A blank immobilization was performed in flow cell one. EDC34 was injected at different concentrations (25–400 nM) at a flow rate of 30 μl/min and a temperature of 25°C over the flow cells using a running buffer containing 10 mm Hepes, 150 mm NaCl, 0.005% surfactant P20, and 3.4 mM EDTA (pH 7.5). Regeneration of the sensor surface was conducted in 0.5 M sodium chloride. The analysis was performed using a Biacore X100 instrument (GE Healthcare, Uppsala, Sweden) and the data was fitted using a 1:1 binding model.
A general note: SPR reads the build-up and loss of mass on a sensor chip optically.

Assay [3] relates to human IgG on E. coli bacteria. The assay can be described thus: Pull down assay, IgG opsonization on the bacterial surface. Further details: species or system Escherichia coli. Here is the method:
In a total volume of 500 μl PBS buffer, 2 μM of EDC34, and 8 μM of IgG were incubated for 24 h at 37°C. Subsequently, E. coli bacteria (1–2 × 10^6 cfu/ml) were added, and then the mixture was incubated for additional 1 h. In a parallel experiment, the bacteria in the presence of absence of EDC34 were incubated for 30 min at 37°C before IgG was added for 1 h at 37°C. Samples were then centrifuged, bacterial pellets were washed twice with PBS and then re-suspended in 360 μl of 0.1 M glycine, pH 2.0 to elute the bound proteins. The pH of the eluted material was raised to 7.5 with 1 M Tris. Thereafter, 100 μl of 100% TCA were added to precipitate the eluted proteins followed by incubation for 10 min at −20° C followed by a centrifugation step for 20 min at 15,000 × g (4°C). The pellets were washed with acetone and left to air dry before they were dissolved in loading dye and analyzed under non-reducing conditions by SDS-PAGE, followed by Western blot analysis.

For assay [4], the system named is C1q on the surface of E. coli bacteria. The assay can be described thus: Pull down assay, C1q recruitment to the bacterial surface. Further details: species or system Escherichia coli. The note with it: citrate plasma with 10 μM EDC34, 1 h 37°C; anti-C1q immunoblot; versus plasma alone (Figure 2B).
In a further assay the test system is C1q. The note with it: cited from earlier work. The source says:
(§3) Previous studies have shown that complement activation can be amplified by targeting certain proteins such as complement factor C3 ([33]). Elvington et al. for instance described in 2012 a method showing that complement activation can be used as cancer therapy. To this end the authors employed a fusion protein of a complement receptor and an IgG Fc fragment to improve the outcome of mAb therapy in a murine metastatic cancer model ([33]). […] Moreover EDC34 is able to up re ...

The subject of another assay is C3a. The following applies: cited from earlier work.
Text: as §3

The subject of another assay is Gram-negative bacteria. The note with it: cited from earlier work.
Text: as §3

Turning to “DAAQEPTGNNAET [DAA14, control peptide derived from the N-terminal region of human TFPI-2, reference compound]”, in the assay with Escherichia coli [1] (20% human citrate plasma, 2 h 37°C (Figure 3A,B), text does not separate the two bacteria), the “antimicrobial activity in plasma, E. coli” value is listed as “no antimicrobial activity”. Further, in the assay with P. aeruginosa, the “antimicrobial activity in plasma, P. aeruginosa” value is “no antimicrobial activity”.

Regarding “EDCKRACAKALKKKKKMPKLRFASRIRKIRKKQF [EDC34, C-terminal peptide derived from human TFPI-2]”, the “antimicrobial activity against E. coli” value is recorded as “completely eradicate the bacteria” in the assay on Escherichia coli [1] (EDC34 6 μM, 10 mM Tris, 150 mM NaCl, pH 7.4 with 20% citrate plasma, 2 h 37°C, n = 3 (Figure 1A)); “decreased” with Escherichia coli [1] (EDC34 6 μM, buffer with 20% EDTA plasma, 2 h 37°C, n = 3 (Figure 1A)); “decreased” in the assay with Escherichia coli [1] (EDC34 6 μM, buffer with 20% lepirudin plasma, 2 h 37°C, n = 3 (Figure 1A)); “decreased” with Escherichia coli [1] (EDC34 6 μM, buffer with 20% serum, 2 h 37°C, n = 3 (Figure 1A)). Further, in the assay on Escherichia coli [1] (EDC34 6 μM, buffer with 20% heparin plasma, 2 h 37°C, n = 3 (Figure 1A)), the bacterial survival rate entry is “exceeding 80%”. Besides, the “killing of E. coli” value in the assay with Escherichia coli [1] (EDC34 in PBS alone, 2 h 37°C, n = 3 (Figure 2C)) was “moderate killing activity”; in the assay on Escherichia coli [1] (EDC34 in PBS with 25% citrate plasma, 2 h 37°C, n = 3 (Figure 2C)), approximately 100%. Moreover, in the assay with Escherichia coli [1] (EDC34 in PBS with 25% immunoglobulin-depleted citrate plasma reconstituted with IgG, 2 h 37°C, n = 3 (Figure 2C)), the antimicrobial activity entry is listed as “retained its full antimicrobial activity”. Besides, the bacterial survival result in the assay on Escherichia coli [1] (EDC34 in PBS with 25% immunoglobulin-depleted citrate plasma, 2 h 37°C, n = 3 (Figure 2C)) is “Bacterial survival was increased”. The “antimicrobial activity, zone of inhibition” value in the assay with Escherichia coli [2] is recorded as “able impair bacterial growth”. Moreover, the “binding to IgG” value with IgG (0.5 μg EDC34 with 3 μg IgG, 10 mM Tris, 150 mM NaCl, pH 7.4, 1 h 37°C, immunoblot (Figure 1C)) is listed as “avidly binds”. Further, the “interaction with IgG over time” value in the assay with IgG (EDC34 and IgG 1:1 (6 μM), 37°C, after 24 h incubation (Figure 1D)) is “entirely absorbed”. Moreover, the “binding to IgA” value with IgA is recorded as “avidly binds”. In addition, the “binding to IgE” value at IgE is recorded as “avidly binds”. Further, in the assay with IgM, the “binding to IgM” value is on record as “avidly binds”. In the assay on Fc-IgG, the “binding to Fc fragment of IgG” value was “able to bind”. Besides, the “binding to Fab fragment of IgG” value in the assay on Fab-IgG is on record as “only the Fc fragment is able to bind”. In addition, the “affinity for human IgG” value in the assay on human IgG was “highest affinity”. The “opsonization of immunoglobulin on the bacterial surface” value in assay [3] (EDC34 (2 μM) pre-incubated with IgG (8 μM) 24 h in PBS, then E. coli 1 h 37°C (Figure 2A)) is recorded as “increased opsonization”; in [3] (EDC34 first preincubated with E. coli bacteria, then mixed with human IgG (Figure 2A)) it was “less pronounced”. The “C1q at the surface of E. coli bacteria” value in [4] was “recruitment of C1q”. The “binding of C1q to bacterial surfaces” value with C1q was “enhances the binding of C1q to bacterial surfaces”. Further, the “antimicrobial activity of C3a” value in the assay with C3a is recorded as “able to up regulate the antimicrobial activity of C3a”. Also, the “eradication of Gram-negative bacteria in vivo” value with Gram-negative bacteria is recorded as “significant capacity to eradicate”.
